Measured values from US8859728B2, “Peptides that target dorsal root ganglion neurons” (Baylor College of Medicine, priority 2008, dated 2014).
Where no end group is shown, it is not given here.

Assays:
DRG neurons = experiment: In vivo binding of GST-peptide-fusion proteins to DRG neurons after subarachnoid injection; set-up: species or system mouse; conditions: L5 DRG; for NF-L-positive neurons positive for GST fusion protein: 5 μg into subarachnoid space, C57BL/6 mice, 1 h; for mean diameter of cells positive for GST fusion protein: in vivo, mean±SD
Text: To evaluate their binding to DRG cells in vivo, GST fusion proteins of three selected peptides were synthesized using the pGEX4T-1 vector kit (Amersham, Piscataway, N.J.) according to the manufacturer's instructions. Briefly, oligonucleotides for C-DRG1-C, C-DRG2-C, and C-DRG3-C were synthesized cloned into the pGEX4T-1 vector, and transformed in E. coli. The synthesized GST-fusion proteins were pull down by Glutathione Sepharose 4B (Amersham), and purified. The purities and reactions to anti-GST antibodies (Amersham) were confirmed by gel-electrophoresis stained by Coomassie Blue and anti-GST immunoblotting.
Under intraperitoneal pentobarbiturate anesthesia (0.1 mg/g BW), 10 μl (500 μg/ml) of purified GST-fusion proteins (GST-DRG1, GST-DRG2, GST-DRG3, or GST alone) were injected into the subarachnoid space of 8-week-old female C57BL/6 mice (n=3 each). After 1 h, the mice were sacrificed and transcardially perfused with cold saline followed by 4% paraformaldehyde, 0.5% glutaraldehyde and 0.3% picric acid in 0.1 M PBS (pH 7.4). The L5 DRGs were then isolated and cut sectioned (10 μm) for fluorescence immunohistochemistry. After blocking with 10% horse serum, the sections were incubated overnight at 4° C. with goat anti-GST antibody (Amersham) diluted 1:1000 and rabbit anti-neurofilament L (NF-L, non-phosphorylated form, Chemicon, Temecula, Calif.) antibody diluted 1:100 in PBST. The sections were incubated for 1 h with Alexa Fluor 488-labeled anti-goat IgG and Alexa Fluor 555-labeled anti-rabbit IgG (Molecular Probes, Eugene, Oreg.) at room temperature, mounted with VECTASHIELD mounting medium containing 4′,6-diamidino-2-phenylindole (DAPI) (Vector Laboratories Inc., Burlingame, Calif.), and observed under a fluorescence microscope (Axioplan 2 imaging and Axiocam, Carl Zeiss, Jena, Germany). For quantitative analysis, the inventors took pictures of randomly selected fields and measured diameters (long and short) of the cells positive for GST, NF-L and DAPI. The mean cell size was calculated as the mean of the long and short diameters, and cell-size differences were evaluated in the three different groups.

isolated DRG neurons = experiment: Double staining of isolated DRG neurons after incubation with DRG-p1 and GST-DRG3; assay type: cell-based, mouse; conditions: antibodies against phage and GST
Text: The Ph.D.-C7C Phage display Peptide Library kit expresses random 7-amino acid peptides fused to the minor coat protein (pIII) of the M13 phage. By sequence analysis, only 113 phage plaques were represented in the bound peptide, consistent with a very efficient selection process (Table 2). The final binding studies allowed identification of three phages (DRG1, DRG2, or DRG3) that occurred repeatedly. In specific embodiments of the invention, the efficient identification of these clones was the result of multiple rounds of positive and negative selection using the biopanning protocol (Liang et al., 2006), although in specific cases some of the other 84 clones (Table 2) are true DRG-binding peptide-phages. […] Moreover, the size specificity of target neurons for individual peptides was confirmed by in vivo binding experiments: GST-DRG1 and GST-DRG3 recognized small-sized neurons, and GST-DRG2 recognized large-sized neurons. Since both DRG1 and DRG3 recognized small sized neurons, two peptide ligands might bind to the same cell populations. Therefore, double staining was performed of isolated DRG neurons after the incubation with DRG-p1 and GST-DRG3 by antibodies against phage and GST, respectively. Double positive staining was obtained in 51% of DRG-p1-positive neurons, and was in 71% of GST-DRG3-positive neurons, respectively. […]

Substance	NF-L-positive neurons positive for GST fusion protein (DRG neurons) [%]	mean diameter of cells positive for GST fusion protein (DRG neurons) [μm]	double positive staining (DRG-p1 and GST-DRG3) as share of neurons positive for the named ligand (isolated DRG neurons) [%]
GST-DRG2: GST fusion protein of peptide C-DRG2-C made with pGEX4T-1 in E. coli (CDGPWRKMC; cysteine pairing not given here; also: GST fusion protein, GST not in chain)	25	33.5±7.4	
GST-DRG1: GST fusion protein of peptide C-DRG1-C made with pGEX4T-1 in E. coli (CSPGARAFC; cysteine pairing not given here; also: GST fusion protein, GST not in chain)	39	21.6±5.2	
GST-DRG3: GST fusion protein of peptide C-DRG3-C made with pGEX4T-1 in E. coli (CFGQKASSC; cysteine pairing not given here; also: GST fusion protein, GST not in chain)	14	22.7±6.6	71
